Data: ChEMBL document CHEMBL1158786, “Triterpenoid saponin anthranilates from Albizia grandibracteata leaves ingested by primates in Uganda” (J Nat Prod, 2005)

How the values were obtained:
[1] = system: MCF7; test: Cytotoxicity against human MCF7 cells; format: functional, cell-based
[2] = system: KB; test: Cytotoxicity against human KB cells; format: functional, cell-based

Compound	IC50 [1]	IC50 [2]
COc1cccc2c1C(=O)c1c(O)c3c(c(O)c1C2=O)C[C@@](O)(C(=O)CO)C[C@@H]3O[C@H]1C[C@H](N)[C@H](O)[C@H](C)O1 [DOXORUBICIN]	100 nM	100 nM
CC(=O)N[C@H]1[C@H](O[C@H]2CC[C@]3(C)[C@H]4CC=C5[C@@H]6CC(C)(C)[C@@H](OC(=O)c7ccccc7N)C[C@]6(C(=O)O[C@@H]6O[C@H](CO)[C@@H](O)[C@H](O)[C@H]6O[C@@H]6O[C@@H](C)[C@H](O[C@@H]7OC[C@@H](O)[C@H](O)[C@H]7O)[C@@H](O)[C@H]6O)[C@H](O)C[C@@]5(C)[C@]4(C)CC[C@H]3C2(C)C)O[C@H](CO[C@@H]2O[C@H](C)[C@H](O)[C@H](O)[C@H]2O[C@@H]2OC[C@@H](O)[C@H](O)[C@H]2O)[C@@H](O)[C@@H]1O [GRANDIBRACTEOSIDE A]	400 nM	1300 nM
CC(=O)N[C@H]1[C@H](O[C@H]2CC[C@]3(C)[C@H]4CC=C5[C@@H]6CC(C)(C)[C@@H](OC(=O)c7ccccc7N)C[C@]6(C(=O)O[C@@H]6O[C@H](CO[C@@H]7O[C@H](CO)[C@@H](O)[C@H](O)[C@H]7O)[C@@H](O)[C@H](O)[C@H]6O[C@@H]6O[C@@H](C)[C@H](O[C@@H]7OC[C@@H](O)[C@H](O)[C@H]7O)[C@@H](O)[C@H]6O)[C@H](O)C[C@@]5(C)[C@]4(C)CC[C@H]3C2(C)C)O[C@H](CO[C@@H]2O[C@H](C)[C@H](O)[C@H](O)[C@H]2O[C@@H]2OC[C@@H](O)[C@H](O)[C@H]2O)[C@@H](O)[C@@H]1O [GRANDIBRACTEOSIDE B]	1700 nM	2300 nM
CC(=O)N[C@H]1[C@H](O[C@H]2CC[C@]3(C)[C@H]4CC=C5[C@@H]6CC(C)(C)[C@@H](OC(=O)c7ccccc7N)C[C@]6(C(=O)O[C@@H]6O[C@H](CO)[C@@H](O)[C@H](O)[C@H]6O[C@@H]6O[C@@H](C)[C@H](O[C@@H]7O[C@@H](CO)[C@H](O)[C@H]7O)[C@@H](O[C@@H]7O[C@H](CO)[C@@H](O)[C@H](O)[C@H]7O)[C@H]6O)[C@H](O)C[C@@]5(C)[C@]4(C)CC[C@H]3C2(C)C)O[C@H](CO[C@@H]2O[C@H](C)[C@H](O)[C@H](O)[C@H]2O[C@@H]2OC[C@@H](O)[C@H](O)[C@H]2O)[C@@H](O)[C@@H]1O [GRANDIBRACTEOSIDE C]	1700 nM	2300 nM
